Reference: US9938261B2, “Heterocyclic compounds and methods of use thereof” (AMBIT BIOSCIENCES CORPORATION, priority 2011, dated 2018)
Structures can show the parent of a compound that is named as a salt. Where two headings read alike, the source gives them in different places.

Experiments:
[1] = system: M-NFS-60 cells; test: M-NFS-60 cell proliferation assay (Alamar Blue); type: cell-based, mouse; conditions: Mus musculus, read-out: CSF1R M-NFS-60 CTB:IC50
In short: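 Alamar Blue reduction (3 h; 560/590 nm) measured viability after 72 h, 37 °C treatment with nine half-log compound concentrations at 0.5% DMSO. Cells: M-CSF-dependent (20 ng/mL) murine M-NFS-60 in RPMI plus 10% FBS. IC50s, averaged from duplicates, reflect half-maximal inhibition of proliferation relative to control.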

[2] = target: T1, FLT3 (Homo sapiens, UniProt P36888); test: Competition binding assay, FLT3 Kd
T1 construct: made in house
T1 sequence (P36888 27-993): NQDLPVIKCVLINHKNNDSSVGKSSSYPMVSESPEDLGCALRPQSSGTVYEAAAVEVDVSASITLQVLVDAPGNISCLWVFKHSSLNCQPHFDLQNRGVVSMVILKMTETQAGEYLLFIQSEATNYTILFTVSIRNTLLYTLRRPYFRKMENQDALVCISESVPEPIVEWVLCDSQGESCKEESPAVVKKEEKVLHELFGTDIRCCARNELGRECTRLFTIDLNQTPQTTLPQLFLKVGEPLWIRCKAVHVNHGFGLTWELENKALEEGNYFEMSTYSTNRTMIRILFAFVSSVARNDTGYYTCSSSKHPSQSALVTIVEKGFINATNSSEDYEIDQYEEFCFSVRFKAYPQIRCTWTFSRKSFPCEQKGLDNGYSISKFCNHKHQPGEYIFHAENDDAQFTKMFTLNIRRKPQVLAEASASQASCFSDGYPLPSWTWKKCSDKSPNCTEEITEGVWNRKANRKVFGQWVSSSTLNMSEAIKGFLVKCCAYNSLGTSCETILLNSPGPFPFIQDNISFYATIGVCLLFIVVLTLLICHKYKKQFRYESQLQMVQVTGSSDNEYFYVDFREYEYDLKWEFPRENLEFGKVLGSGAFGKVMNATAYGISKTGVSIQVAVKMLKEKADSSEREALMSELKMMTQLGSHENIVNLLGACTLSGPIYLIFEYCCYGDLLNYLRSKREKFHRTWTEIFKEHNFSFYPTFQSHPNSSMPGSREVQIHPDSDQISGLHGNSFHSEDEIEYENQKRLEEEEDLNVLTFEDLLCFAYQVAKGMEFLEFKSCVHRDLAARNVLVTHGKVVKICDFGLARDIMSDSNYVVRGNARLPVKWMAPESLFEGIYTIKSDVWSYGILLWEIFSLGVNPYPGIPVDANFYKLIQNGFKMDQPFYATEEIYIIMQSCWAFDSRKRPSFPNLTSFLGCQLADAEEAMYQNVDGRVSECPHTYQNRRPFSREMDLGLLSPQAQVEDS
In short: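 Phage-fused or HEK-293/DNA-tagged kinase + ligand-coated streptavidin beads + compound, 1 h RT with shaking. Wash, elute with free ligand 30 min RT, qPCR of eluted kinase. Kd: 11-point 3-fold series.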

[3] = 72 hours incubation, M-CSF 20 ng/mL

Row | SMILES | Kd [2] | Kd ([2]; competition binding) | IC50 [1, 3] | IC50 ([1]; M-NFS-60 cell proliferation)
1 | O[C@@H]1Cc2ccccc2[C@H]1Nc1nc2ccc(Cn3cnc4cccnc43)cc2o1 [Example 57, (1R,2R)-1-((6-((3H-imidazo[4,5-b]pyridin-3-yl)methyl)benzo[d]oxazol-2-yl)amino)-2,3-dihydro-1H-inden-2-ol] | 200 to 1000 nM |  | 50 to 400 nM | 
2 | CCc1cnc2c(c1)ncn2Cc1ccc2nc(N[C@@H]3CCCC[C@H]3O)sc2c1 [Example 102, (1R,2R)-2-((6-((6-ethyl-3H-imidazo[4,5-b]pyridin-3-yl)methyl)benzo[d]thiazol-2-yl)amino)cyclohexanol] | 200 to 1000 nM |  | ≤ 50 nM | 
3 | C=Cc1cnc2c(c1)ncn2Cc1ccc2nc(N[C@@H]3CCCC[C@H]3O)sc2c1 [Example 98, (1R,2R)-2-((6-((6-vinyl-3H-imidazo[4,5-b]pyridin-3-yl)methyl)benzo[d]thiazol-2-yl)amino)cyclohexanol] | 200 to 1000 nM |  | ≤ 50 nM | 
4 | O[C@@H]1CCCC[C@H]1Nc1nc2ccc(Cn3cnc4cncnc43)cc2s1 [Example 48, (1R,2R)-2-((6-((9H-purin-9-yl)methyl)benzo[d]thiazol-2-yl)amino)cyclohexanol] | > 5000 nM |  | 50 to 400 nM | 
5 | OC1CCN(c2ccn3c(Cc4ccc5nc(N[C@@H]6CCCC[C@H]6O)sc5c4)cnc3c2)CC1 [Example 199, 1-(3-((2-(((1R,2R)-2-hydroxycyclohexyl)amino)benzo[d]thiazol-6-yl)methyl)imidazo[1,2-a]pyridin-7-yl)piperidin-4-ol] |  | > 5000 nM |  | > 1500 nM
6 | CSc1cnc2c(c1)ncn2Cc1ccc2nc(N[C@@H]3CCCC[C@H]3O)sc2c1 [Example 85, (1R,2R)-2-((6-((6-(methylthio)-3H-imidazo[4,5-b]pyridin-3-yl)methyl)benzo[d]thiazol-2-yl)amino)cyclohexanol] | 200 to 1000 nM |  | ≤ 50 nM | 
7 | CC(O)c1ccn2c(Cc3ccc4nc(N[C@@H]5CCCC[C@H]5O)sc4c3)cnc2c1 (stereo partly drawn) [Example 201, (1R,2R)-2-((6-((7-(1-hydroxyethyl)imidazo[1,2-a]pyridin-3-yl)methyl)benzo[d]thiazol-2-yl)amino)cyclohexanol] |  | 1000 to 5000 nM |  | > 1500 nM
8 | CNC(=O)c1cn(Cc2ccc3nc(N[C@@H]4CCCC[C@H]4O)sc3c2)cn1 [Example 37, 1-((2-(((1R,2R)-2-hydroxycyclohexyl)amino)benzo[d]thiazol-6-yl)methyl)-N-methyl-1H-imidazole-4-carboxamide] | > 5000 nM |  | > 1500 nM | 
9 | OC1(CNc2nc3ccc(Cn4cnc5cccnc54)cc3s2)CCCCC1 [Example 75, 1-(((6-((3H-imidazo[4,5-b]pyridin-3-yl)methyl)benzo[d]thiazol-2-yl)amino)methyl)cyclohexanol] | 1000 to 5000 nM |  | 50 to 400 nM | 
10 | COc1cc2c(cc1Br)ncn2Cc1ccc2nc(N[C@@H]3c4ccccc4C[C@H]3O)sc2c1 [Example 49, (1R,2R)-1-((6-((5-bromo-6-methoxy-1H-benzo[d]imidazol-1-yl)methyl)benzo[d]thiazol-2-yl)amino)-2,3-dihydro-1H-inden-2-ol] | 1000 to 5000 nM |  | 50 to 400 nM | 
11 | COc1cc2c(cc1C#N)ncn2Cc1ccc2nc(N[C@@H]3CCCC[C@H]3O)sc2c1 [Example 65, 1-((2-(((1R,2R)-2-hydroxycyclohexyl)amino)benzo[d]thiazol-6-yl)methyl)-6-methoxy-1H-benzo[d]imidazole-5-carbonitrile] | 1000 to 5000 nM |  | 50 to 400 nM | 
12 | COc1cc2ncn(Cc3ccc4nc(N[C@@H](C)C5CCCCC5)sc4c3)c2cc1OC [Example 33, (S)—N-(1-cyclohexylethyl)-6-((5,6-dimethoxy-1H-benzo[d]imidazol-1-yl)methyl)benzo[d]thiazol-2-amine] | 200 to 1000 nM |  | 50 to 400 nM | 
13 | O[C@@H]1Cc2ccccc2[C@H]1Nc1nc2ccc(Cn3cnc4ccc(Br)nc43)cc2s1 [Example 80, (1R,2R)-1-((6-((5-bromo-3H-imidazo[4,5-b]pyridin-3-yl)methyl)benzo[d]thiazol-2-yl)amino)-2,3-dihydro-1H-inden-2-ol] | 200 to 1000 nM |  | ≤ 50 nM | 
14 | Cn1cc(-c2cn(Cc3ccc4nc(N[C@@H]5CCCC[C@H]5O)sc4c3)cn2)cn1 [Example 36, (1R,2R)-2-((6-((4-(1-methyl-1H-pyrazol-4-yl)-1H-imidazol-1-yl)methyl)benzo[d]thiazol-2-yl)amino)cyclohexanol] | > 5000 nM |  | 50 to 400 nM | 
15 | O[C@@H]1Cc2ccccc2[C@H]1Nc1nc2ccc(Cn3cnc4cc(Br)cnc43)cc2o1 [Example 62, (1R,2R)-1-((6-((6-bromo-3H-imidazo[4,5-b]pyridin-3-yl)methyl)benzo[d]oxazol-2-yl)amino)-2,3-dihydro-1H-inden-2-ol] | 200 to 1000 nM |  | ≤ 50 nM | 
16 | COc1cc2c(cc1-c1cnn(C)c1)ncn2Cc1ccc2nc(N[C@@H]3CCCC[C@H]3O)sc2c1 [Example 51, (1R,2R)-2-((6-((6-methoxy-5-(1-methyl-1H-pyrazol-4-yl)-1H-benzo[d]imidazol-1-yl)methyl)benzo[d]thiazol-2-yl)amino)cyclohexanol] | ≤ 200 nM |  | ≤ 50 nM | 
17 | COc1cc2ncn(Cc3ccc4nc(N[C@@H]5CCCC[C@H]5O)sc4c3)c2cc1-c1cnn(C)c1 [Example 52, (1R,2R)-2-((6-((5-methoxy-6-(1-methyl-1H-pyrazol-4-yl)-1H-benzo[d]imidazol-1-yl)methyl)benzo[d]thiazol-2-yl)amino)cyclohexanol] | ≤ 200 nM |  | 50 to 400 nM | 
18 | C#Cc1cnc2c(c1)ncn2Cc1ccc2nc(N[C@@H]3CCCC[C@H]3O)sc2c1 [Example 96, (1R,2R)-2-((6-((6-ethynyl-3H-imidazo[4,5-b]pyridin-3-yl)methyl)benzo[d]thiazol-2-yl)amino)cyclohexanol] | ≤ 200 nM |  | ≤ 50 nM | 

Now from value to compound, other results behind:

Row | Kd [2] | Kd ([2]; competition binding) | SMILES | IC50 [1, 3] | IC50 ([1]; M-NFS-60 cell proliferation)
19 |  | 200 to 1000 nM | O[C@@H]1CCCC[C@H]1Nc1nc2ccc(Cn3cnc4cc(C(F)(F)F)cnc43)cc2s1 [Example 212, (1R,2R)-2-((6-((6-(trifluoromethyl)-3H-imidazo[4,5-b]pyridin-3-yl)methyl)benzo[d]thiazol-2-yl)amino)cyclohexanol] |  | 50 to 400 nM
20 |  | > 5000 nM | Nc1nccn(Cc2ccc3nc(N[C@@H]4CCCC[C@H]4O)sc3c2)c1=O [Example 220, 3-amino-1-((2-(((1R,2R)-2-hydroxycyclohexyl)amino)benzo[d]thiazol-6-yl)methyl)pyrazin-2(1H)-one acetate salt] |  | > 1500 nM
21 |  | 1000 to 5000 nM | C=CCOc1ccn2c(Cc3ccc4nc(N[C@@H]5CCCC[C@H]5O)sc4c3)cnc2c1 [Example 217, (1R,2R)-2-((6-((7-(allyloxy)imidazo[1,2-a]pyridin-3-yl)methyl)benzo[d]thiazol-2-yl)amino)cyclohexanol] |  | 50 to 400 nM
22 |  | 1000 to 5000 nM | C=Cc1ccn2c(Cc3ccc4nc(N[C@@H]5CCCC[C@H]5O)sc4c3)cnc2c1 [Example 216, (1R,2R)-2-((6-((7-vinylimidazo[1,2-a]pyridin-3-yl)methyl)benzo[d]thiazol-2-yl)amino)cyclohexanol] |  | 50 to 400 nM
23 |  | 200 to 1000 nM | N#Cc1cc(F)c2c(c1)ncn2Cc1ccc2nc(N[C@@H]3CCCC[C@H]3O)sc2c1 [Example 206, 7-fluoro-1-((2-(((1R,2R)-2-hydroxycyclohexyl)amino)benzo[d]thiazol-6-yl)methyl)-1H-benzo[d]imidazole-5-carbonitrile] |  | 50 to 400 nM
24 |  | 200 to 1000 nM | O[C@@H]1CCCC[C@H]1Nc1nc2ccc(Cn3cnc4cc(N5CCOCC5)ccc43)cc2s1 [Example 209, (1R,2R)-2-((6-((5-morpholino-1H-benzo[d]imidazol-1-yl)methyl)benzo[d]thiazol-2-yl)amino)cyclohexanol] |  | 50 to 400 nM
25 |  | > 5000 nM | O=C1CCCCN1c1ccc2c(c1)ncn2Cc1ccc2nc(N[C@@H]3CCCC[C@H]3O)sc2c1 [Example 210, 1-(1-((2-(((1R,2R)-2-hydroxycyclohexyl)amino)benzo[d]thiazol-6-yl)methyl)-1H-benzo[d]imidazol-5-yl)piperidin-2-one] |  | > 1500 nM
26 |  | 1000 to 5000 nM | O[C@@H]1CCCC[C@H]1Nc1nc2ccc(Cc3cnc4cc(-n5nccn5)ccn34)cc2s1 [Example 215, (1R,2R)-2-((6-((7-(2H-1,2,3-triazol-2-yl)imidazo[1,2-a]pyridin-3-yl)methyl)benzo[d]thiazol-2-yl)amino)cyclohexanol] |  | 50 to 400 nM
